Molecular target: T1, Protein kinase C zeta type (Rattus norvegicus, UniProt P09217)
T1 sequence (P09217 whole entry): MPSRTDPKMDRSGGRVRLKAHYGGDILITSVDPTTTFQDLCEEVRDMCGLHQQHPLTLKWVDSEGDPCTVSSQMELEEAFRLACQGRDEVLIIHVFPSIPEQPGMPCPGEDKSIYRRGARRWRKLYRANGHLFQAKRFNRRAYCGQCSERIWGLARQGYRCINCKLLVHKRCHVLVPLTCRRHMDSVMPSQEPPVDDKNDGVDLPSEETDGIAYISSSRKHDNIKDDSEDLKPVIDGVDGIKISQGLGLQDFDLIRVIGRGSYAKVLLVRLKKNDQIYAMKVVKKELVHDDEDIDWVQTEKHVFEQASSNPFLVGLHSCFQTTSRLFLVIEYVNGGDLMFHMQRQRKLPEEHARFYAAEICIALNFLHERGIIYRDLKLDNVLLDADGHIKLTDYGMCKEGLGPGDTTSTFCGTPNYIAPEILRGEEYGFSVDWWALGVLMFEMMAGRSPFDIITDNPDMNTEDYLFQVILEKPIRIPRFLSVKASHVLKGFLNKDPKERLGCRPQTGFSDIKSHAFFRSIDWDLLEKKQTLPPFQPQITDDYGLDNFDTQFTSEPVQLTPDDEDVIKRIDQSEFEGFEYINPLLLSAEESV
Test: Inhibition of Protein kinase C isolated from rat brain

Row | IC50 [µM] | Compound
1 | 22.2 | CCCCCCCCCCC#Cc1cccc([C@@H](O)[C@@H](N)CO)c1
2 | 23.4 | CCCCCCCCCCCCC/C=C/[C@@H](O)[C@@H](N)CO [(E,2S,3R)-2-azanyloctadec-4-ene-1,3-diol]

— BindingDB's records for doi:10.7270/Q2WS8WDS (n/a, 1995)
